Assay results reported in patent US20220402862A1 (Intellia Therapeutics, Inc., priority 2019, published 2022).

Columns and labels:
Type in all cases: physicochemical
[1] = pKa measurement of unformulated amine lipid (fluorescence, method of Jayaraman et al.); conditions: 100 μM in 0.1 M phosphate buffer, pH 2.0-12.0
Description: The pKa of each amine lipid was determined according to the method in Jayaraman, et al. (Angewandte Chemie, 2012) with the following adaptations. […] Lipid was diluted to 100 μM in 0.1 M phosphate buffer (Boston Bioproducts) where the pH ranged from 2.0-12.0. Fluorescence intensity was measured using excitation and emission wavelengths of 321 nm and 448 nm.

[2] = RNA encapsulation efficiency of LNPs (Ribogreen fluorescence assay); conditions: LNP, sg:mRNA 1:1, N/P about 6, amine lipid/DSPC/cholesterol/PEG-2k-DMG 50/9/38/3; Table 2, Experiments 2-20
Description: A fluorescence-based assay (Ribogreen®, ThermoFisher Scientific) is used to determine total RNA concentration and free RNA. Encapsulation efficiency is calculated as (Total RNA-Free RNA)/Total RNA. LNP samples are diluted appropriately with 1× TE buffer containing 0.2% Triton-X 100 to determine total RNA or 1× TE buffer to determine free RNA. Standard curves are prepared by utilizing the starting RNA solution used to make the compositions and diluted in 1× TE buffer +/− 0.2% Triton-X 100. Diluted RiboGreen® dye (according to the manufacturer's instructions) is then added to each of the standards and samples and allowed to incubate for approximately 10 minutes at room temperature, in the absence of light. A SpectraMax M5 Microplate Reader (Molecular Devices) is used to read the samples with excitation, auto cutoff and emission wavelengths set to 488 nm, 515 nm, and 525 nm respectively. Total RNA and free RNA are determined from the appropriate standard curves.
Encapsulation efficiency is calculated as (Total RNA-Free RNA)/Total RNA. The same procedure may be used for determining the encapsulation efficiency of a DNA-based cargo component. In a fluorescence-based assay, for single-strand DNA Oligreen Dye may be used, and for double-strand DNA, Picogreen Dye. Alternatively, the total RNA concentration can be determined by a reverse-phase ion-pairing (RP-IP) HPLC method. Triton X-100 is used to disrupt the LNPs, releasing the RNA. The RNA is then separated from the lipid components chromatographically by RP-IP HPLC and quantified against a standard curve using UV absorbance at 260 nm.

[3] = Dynamic light scattering of LNPs: Z-average diameter, number average diameter, PDI; conditions: LNP, sg:mRNA 1:1, N/P about 6, 50/9/38/3; Table 2, Experiments 2-20
Description: Dynamic Light Scattering (“DLS”) is used to characterize the polydispersity index (“PDI”) and size of the LNPs of the present disclosure. DLS measures the scattering of light that results from subjecting a sample to a light source. PDI, as determined from DLS measurements, represents the distribution of particle size (around the mean particle size) in a population, with a perfectly uniform population having a PDI of zero.
LNP compositions are analyzed for average particle size, polydispersity index (PDI), total RNA content, encapsulation efficiency of RNA, and zeta potential. LNP compositions may be further characterized by lipid analysis, AF4-MALS, NTA, and/or cryo-EM. Average particle size and polydispersity are measured by dynamic light scattering (DLS) using a Malvern Zetasizer DLS instrument or Wyatt NanoStar. LNP samples were diluted with PBS buffer prior to being measured by DLS. Z-average diameter which is an intensity-based measurement of average particle size is reported along with number average diameter and PDI. A Malvern Zetasizer or Wyatt NanoStar instrument is also used to measure the zeta potential of the LNP. Samples are diluted 1:17 (50 μL into 800 μL) in 0.1× PBS, pH 7.4 prior to measurement.

| SMILES | pKa [1] | Encapsulation (%) [2] | Number mean (nm) [3] | PDI [3] | Z-avg (nm) [3] |
| --- | --- | --- | --- | --- | --- |
| CCCCC/C=C\C/C=C\CCCCCCCC(=O)OCC(COC(=O)CCC(OCCCCCCCC)OCCCCCCCC)COC(=O)NCCN1CCC(O)CC1 (centres unmarked) [Compound 49, 3-((4,4-bis(octyloxy)butanoyl)oxy)-2-((((2-(4-hydroxypiperidin-1-yl)ethyl)carbamoyl)oxy)methyl)propyl (9Z,12Z)-octadeca-9,12-dienoate] | 8.4 | – | – | – | – |
| CCCCC/C=C\C/C=C\CCCCCCCC(=O)OCC(COC(=O)CCC(OCCCCCCCC)OCCCCCCCC)COC(=O)OCC1CN(CC)C1 (centres unmarked) [Compound 50, 3-((4,4-bis(octyloxy)butanoyl)oxy)-2-(((((1-ethylazetidin-3-yl)methoxy)carbonyl)oxy)methyl)propyl (9Z,12Z)-octadeca-9,12-dienoate] | 5.2 | – | – | – | – |
| CCCCCCCCOC(CCC(=O)OCC(COC(=O)CCCCCCCC(=O)OCCCCCC)COC(=O)OCCCN(CC)CC)OCCCCCCCC (centres unmarked) [Compound 57, 1-(3-((4,4-bis(octyloxy)butanoyl)oxy)-2-((((3-(diethylamino)propoxy)carbonyl)oxy)methyl)propyl) 9-hexyl nonanedioate] | 6.59 | 89% | 83.41 nm | 0.011 | 102 nm |
| CCCCCCCCOC(=O)CCCCCCCC(=O)OCC(COC(=O)CCC(OCCCCCCCC)OCCCCCCCC)COC(=O)OCCCN(CC)CC (centres unmarked) [Compound 58, 1-(3-((4,4-bis(octyloxy)butanoyl)oxy)-2-((((3-(diethylamino)propoxy)carbonyl)oxy)methyl)propyl) 9-octyl nonanedioate] | 6.4 | 95% | 72.42 nm | 0.029 | 89.07 nm |
| CCCCCCCCOC(CCC(=O)OCC(COC(=O)CCCCCCCCCCC(=O)OCCCCC)COC(=O)OCCCN(CC)CC)OCCCCCCCC (centres unmarked) [Compound 60, 1-(3-((4,4-bis(octyloxy)butanoyl)oxy)-2-((((3-(diethylamino)propoxy)carbonyl)oxy)methyl)propyl) 12-pentyl dodecanedioate] | 6.38 | 97% | 84.46 nm | 0.022 | 104.2 nm |
| CCCCC/C=C\C/C=C\CCCCCCCC(=O)OCC(COC(=O)CCCCC(OCCCCCCCC)OCCCCCCCC)COC(=O)OCCCN(CC)CC (centres unmarked) [Compound 62, 3-((6,6-bis(octyloxy)hexanoyl)oxy)-2-((((3-(diethylamino)propoxy)carbonyl)oxy)methyl)propyl (9Z,12Z)-octadeca-9,12-dienoate] | 6.03 | 98% | 59.35 nm | 0.044 | 73.46 nm |
| CCCCC/C=C\C/C=C\CCCCCCCC(=O)OCC(COC(=O)CCCC(=O)OC(CCCCCCCC)CCCCCCCC)COC(=O)OCCCN(CC)CC (centres unmarked) [Compound 63, 3-(((3-(diethylamino)propoxy)carbonyl)oxy)-2-((((9Z,12Z)-octadeca-9,12-dienoyl)oxy)methyl)propyl heptadecan-9-yl glutarate] | 6.09 | 98% | 64.05 nm | 0.019 | 79.37 nm |
| CCCCC/C=C\C/C=C\CCCCCCCC(=O)OCC(COC(=O)CCCCCC(=O)OC(CCCCCCCC)CCCCCCCC)COC(=O)OCCCN(CC)CC (centres unmarked) [Compound 64, 1-(3-(((3-(diethylamino)propoxy)carbonyl)oxy)-2-((((9Z,12Z)-octadeca-9,12-dienoyl)oxy)methyl)propyl) 7-(heptadecan-9-yl) heptanedioate] | 6.08 | 98% | 69.25 nm | 0.032 | 85.16 nm |
| CCCCC/C=C\C/C=C\CCCCCCCC(=O)OCC(COC(=O)OCCCN(CC)CC)COC(=O)C(CCCCCC)CCCCCCCC (centres unmarked) [Compound 65, 3-(((3-(diethylamino)propoxy)carbonyl)oxy)-2-(((2-hexyldecanoyl)oxy)methyl)propyl (9Z,12Z)-octadeca-9,12-dienoate] | 5.88 | 98% | 55.76 nm | 0.034 | 70.19 nm |
| CCCCC/C=C\C/C=C\CCCCCCCC(=O)OCC(COC(=O)CC(CCCCCCCC)CCCCCCCC)COC(=O)OCCCN(CC)CC (centres unmarked) [Compound 66, 3-(((3-(diethylamino)propoxy)carbonyl)oxy)-2-(((3-octylundecanoyl)oxy)methyl)propyl (9Z,12Z)-octadeca-9,12-dienoate] | 6.06 | 98% | 44.03 nm | 0.071 | 58.54 nm |
| CCCCC/C=C\C/C=C\CCCCCCCC(=O)OCC(COC(=O)CCCC(CCCCCCC)CCCCCCC)COC(=O)OCCCN(CC)CC (centres unmarked) [Compound 67, 3-(((3-(diethylamino)propoxy)carbonyl)oxy)-2-(((5-heptyldodecanoyl)oxy)methyl)propyl (9Z,12Z)-octadeca-9,12-dienoate] | 6.19 | 99% | 56.56 nm | 0.025 | 69.85 nm |
| CCCCC/C=C\C/C=C\CCCCCCCC(=O)OCC(COC(=O)CCCCCC(CCCCCC)CCCCCC)COC(=O)OCCCN(CC)CC (centres unmarked) [Compound 68, 3-(((3-(diethylamino)propoxy)carbonyl)oxy)-2-(((7-hexyltridecanoyl)oxy)methyl)propyl (9Z,12Z)-octadeca-9,12-dienoate] | 6.1 | 98% | 60.04 nm | 0.008 | 72.71 nm |
| CCCCCC/C=C\COC(=O)CCCCCCCCCC(=O)OCC(COC(=O)CCC(OCCCCCCCC)OCCCCCCCC)COC(=O)OCCCN(CC)CC (centres unmarked) [Compound 69, (Z)-1-(3-((4,4-bis(octyloxy)butanoyl)oxy)-2-((((3-(diethylamino)propoxy)carbonyl)oxy)methyl)propyl) 11-(non-2-en-1-yl) undecanedioate] | 6.18 | 98% | 68.12 nm | 0.026 | 85.11 nm |
| CCCCCCCCCCOC(=O)CCCCCCCC(=O)OCC(COC(=O)CCC(OCCCCCCC)OCCCCCCC)COC(=O)OCCCN(CC)CC (centres unmarked) [Compound 78, 1-(3-((4,4-bis(heptyloxy)butanoyl)oxy)-2-((((3-(diethylamino)propoxy)carbonyl)oxy)methyl)propyl) 9-decyl nonanedioate] | 6.11 | – | – | – | – |
| CCCCCCCCCCOC(=O)CCCCCCCC(=O)OCC(COC(=O)CCCCCC(=O)OC(CCCCCCCC)CCCCCCCC)COC(=O)NCCN(CC)CC (centres unmarked) [Compound 81, 1-decyl 9-(3-(((2-(diethylamino)ethyl)carbamoyl)oxy)-2-(((7-(heptadecan-9-yloxy)-7-oxoheptanoyl)oxy)methyl)propyl) nonanedioate] | 6.65 | – | – | – | – |
